ChEMBL document CHEMBL3880428, “Sulfonamide derivative having PGD2 receptor antagonistic activity” (2012)

Experiments:
Format in all cases: cell-based
[1] = test system: HEK293; test: Selectivity ratio of IC50 for PGD2 receptor in human platelets to IC50 for human IP receptor expressed in HEK293 cells by cAMP accumulation assay
[2] = test system: HEK293; test: Selectivity ratio of IC50 for PGD2 receptor in human platelets to IC50 for human EP1 receptor expressed in HEK293 cells by cAMP accumulation assay
[3] = test system: HEK293; test: Selectivity ratio of IC50 for PGD2 receptor in human platelets to IC50 for human EP4 receptor expressed in HEK293 cells by cAMP accumulation assay
[4] = test system: HEK293; test: Selectivity ratio of IC50 for PGD2 receptor in human platelets to IC50 for human EP3 receptor expressed in HEK293 cells by cAMP accumulation assay
[5] = test system: HEK293; test: Selectivity ratio of IC50 for PGD2 receptor in human platelets to IC50 for human TP receptor expressed in HEK293 cells by cAMP accumulation assay
[6] = test system: HEK293; test: Selectivity ratio of IC50 for PGD2 receptor in human platelets to IC50 for human FP receptor expressed in HEK293 cells by cAMP accumulation assay
[7] = test system: HEK293; test: Selectivity ratio of IC50 for PGD2 receptor in human platelets to IC50 for human EP2 receptor expressed in HEK293 cells by cAMP accumulation assay

Measured: Ratio IC50

CC(C)Oc1ccc(S(=O)(=O)N2CCN(c3ccc(C(=O)Nc4nncs4)c(OCC(=O)O)c3)CC2)cc1
> 20: [1] | [2] | [3] | [4] | [5] | [6] | [7]

CC(C)Oc1ccc(S(=O)(=O)N2CCC(Oc3ccc(Cl)cc3CCC(=O)O)CC2)cc1
> 20: [1] | [2] | [3] | [4] | [5] | [6] | [7]

CC(C)Oc1ccc(S(=O)(=O)N2CCC(c3ccc(Cl)c(OCC(=O)O)c3)CC2)cc1
> 20: [1] | [2] | [3] | [4] | [5] | [6] | [7]

CC(C)NC(=O)Nc1ccc(N2CCN(S(=O)(=O)c3ccc(OC(C)C)cc3)CC2)cc1OCC(=O)O
> 20: [1] | [2] | [3] | [4] | [5] | [6] | [7]

CC(C)Oc1ccc(S(=O)(=O)N2CCN(c3ccc(C(N)=O)c(OCC(=O)O)c3)CC2)cc1
> 20: [1] | [2] | [3] | [4] | [5] | [6] | [7]

CC(C)Oc1ccc(S(=O)(=O)N2CCN(c3ccc(Oc4ccccc4)c(OCC(=O)O)c3)CC2)cc1
> 20: [1] | [2] | [3] | [4] | [5] | [6] | [7]

CC(C)Oc1ccc(S(=O)(=O)N2CCN(c3ccc(Cl)c(OCC(=O)O)c3)CC2)cn1
> 20: [1] | [2] | [3] | [4] | [5] | [6] | [7]

CC(C)Oc1ccc(S(=O)(=O)N2CCN(c3ccc4ncn(CC(=O)O)c4c3)CC2)cc1
> 20: [1] | [2] | [3] | [4] | [5] | [6] | [7]

CC(C)Oc1ccc(S(=O)(=O)N2CCN(c3cc(F)cc(OCC(=O)O)c3)CC2)cc1
> 20: [1] | [2] | [3] | [4] | [5] | [6] | [7]

CC(C)Oc1ccc(S(=O)(=O)N2CCN(c3ccc(Br)c(OCC(=O)O)n3)CC2)cc1
> 20: [1] | [2] | [3] | [4] | [5] | [6] | [7]

CC(C)Oc1ccc(S(=O)(=O)N2CCN(c3ccc(C(=O)Nc4nccs4)c(OCC(=O)O)c3)CC2)cc1
> 20: [1] | [2] | [3] | [4] | [5] | [6] | [7]

Cc1cc(OCC(=O)O)cc(N2CCN(S(=O)(=O)c3ccc(OC(C)C)cc3)CC2)c1
> 20: [1] | [2] | [3] | [4] | [5] | [6] | [7]

CC(C)Oc1ccc(S(=O)(=O)N2CCN(c3ccc(-c4nnco4)c(OCC(=O)O)c3)CC2)cc1
> 20: [1] | [2] | [3] | [4] | [5] | [6] | [7]

CC(C)Oc1ccc(S(=O)(=O)N2CCN(c3ccc(C(=O)NCc4ccco4)c(OCC(=O)O)c3)CC2)cc1
> 20: [1] | [2] | [3] | [4] | [5] | [6] | [7]

CC(C)Oc1ccc(S(=O)(=O)N2CCN(c3cc(Br)cc(OCC(=O)O)c3)CC2)cc1
> 20: [1] | [2] | [3] | [4] | [5] | [6] | [7]

CC(C)Oc1ccc(S(=O)(=O)N2CCN(c3cc(OCC(=O)O)cc(-c4ccccc4)c3)CC2)cc1
> 20: [1] | [2] | [3] | [4] | [5] | [6] | [7]

Cc1nnc(-c2ccc(N3CCN(S(=O)(=O)c4ccc(OC(C)C)cc4)CC3)cc2OCC(=O)O)s1
> 20: [1] | [2] | [3] | [4] | [5] | [6] | [7]

CC(C)Oc1ccc(S(=O)(=O)N2CCN(c3cc(Cl)cc(OCC(=O)O)c3)CC2)cc1
> 20: [1] | [2] | [3] | [4] | [5] | [6] | [7]

CC(C)Oc1ccc(S(=O)(=O)N2CCN(c3cc(F)c(F)c(OCC(=O)O)c3)CC2)cn1
> 20: [1] | [2] | [3] | [4] | [5] | [6] | [7]

CC(C)Oc1ccc(S(=O)(=O)N2CCN(c3ccc(Br)c(OCC(=O)O)c3)CC2)cc1
> 20: [1] | [2] | [3] | [4] | [5] | [6] | [7]

CC(C)Oc1ccc(S(=O)(=O)N2CCN(c3ccc(Cl)c(OCC(=O)O)c3)CC2C)cc1 (stereo not drawn)
> 20: [1] | [2] | [3] | [4] | [5] | [6] | [7]

Cc1cc(C(=O)Nc2ccc(N3CCN(S(=O)(=O)c4ccc(OC(C)C)cc4)CC3)cc2OCC(=O)O)no1
> 20: [1] | [2] | [3] | [4] | [5] | [6] | [7]

CC(C)Oc1ccc(S(=O)(=O)N2CCN(c3ccc(C(=O)NCc4cccs4)c(OCC(=O)O)c3)CC2)cc1
> 20: [1] | [2] | [3] | [4] | [5] | [6] | [7]

CC(=O)c1ccc(N2CCN(S(=O)(=O)c3ccc(OC(C)C)cc3)CC2)cc1OCC(=O)O
> 20: [1] | [2] | [3] | [4] | [5] | [6] | [7]

CC(C)Oc1ccc(S(=O)(=O)N2CC=C(c3ccc(Cl)c(OCC(=O)O)c3)CC2)cc1
> 20: [1] | [2] | [3] | [4] | [5] | [6] | [7]

CC(C)Oc1ccc(S(=O)(=O)N2CCN(c3ccc(Cl)c(OCC(=O)O)c3)CC2)cc1F
> 20: [1] | [2] | [3] | [4] | [5] | [6] | [7]

CC[C@@H](C)Oc1ccc(S(=O)(=O)N2CCN(c3ccc(Cl)c(OCC(=O)O)c3)CC2)cc1
> 20: [1] | [2] | [3] | [4] | [5] | [6] | [7]

CC(C)Oc1ccc(S(=O)(=O)N2CCN(c3ccc(-c4nncs4)c(OCC(=O)O)c3)CC2)cc1
> 20: [1] | [2] | [3] | [4] | [5] | [6] | [7]

Cc1ccc(N2CCN(S(=O)(=O)c3ccc(OC(C)C)cc3)CC2)cc1OCC(=O)O
> 20: [1] | [2] | [3] | [4] | [5] | [6] | [7]

CC(C)Oc1ccc(S(=O)(=O)N2CCN(c3ccc(-c4ccco4)c(OCC(=O)O)c3)CC2)cc1
> 20: [1] | [2] | [3] | [4] | [5] | [6] | [7]

CC(C)Oc1ccc(S(=O)(=O)N2CCN(c3cc(F)c(F)c(OCC(=O)O)c3)CC2)cc1
> 20: [1] | [2] | [3] | [4] | [5] | [6] | [7]

Cc1nnc(-c2ccc(N3CCN(S(=O)(=O)c4ccc(OC(C)C)cc4)CC3)cc2OCC(=O)O)o1
> 20: [1] | [2] | [3] | [4] | [5] | [6] | [7]

CC(C)Oc1ccc(S(=O)(=O)N2CCN(c3ccc(Cl)c(OCC(=O)O)c3)CC2)cc1
> 20: [1] | [2] | [3] | [4] | [5] | [6] | [7]

CC(C)Oc1ccc(S(=O)(=O)N2CCN(c3ccc(NC(=O)c4cccnc4)c(OCC(=O)O)c3)CC2)cc1
> 20: [1] | [2] | [3] | [4] | [5] | [6] | [7]
